Patent US11753411B2, “Substituted pyrazolo[1,5-a]pyrimidines as TYK2 pseudokinase ligands” (Ventyx Biosciences, Inc., priority 2019, dated 2023)

system: IFN-a/Jak1 Tyk2; assay: Co-stimulation assay in lysed whole blood: IFNa (JAK1/TYK2) stimulated STAT1 phosphorylation; type: cell-based; conditions: Homo sapiens, 20 min, 100 ng/mL IFNa (with 10 ng/mL GM-CSF), pSTAT by flow cytometry
In short: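 Lysed human whole blood (RBC-lysed, resuspended in cRPMI) pre-incubated with compound 1 h at 37 °C, then stimulated 20 min with IFNa 100 ng/mL plus GM-CSF 10 ng/mL (final). Fixed, permeabilised, stained for pSTAT1 (PE) and pSTAT5 (AF488); flow cytometry read-out, ≥5,000–10,000 cells acquired.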

Compound	IC50 [nM]
CNc1cc(-c2cn(C3CCOCC3)c3ncccc23)nc2c(NC(=O)N[C@H]3CC[C@H]3O)cnn12 [Compound 56, 1-((1S,2R)-2-hydroxycyclobutyl)-3-(7-(methylamino)-5-(1-(tetrahydro-2H-pyran-4-yl)-1H-pyrrolo[2,3-b]pyridin-3-yl)pyrazolo[1,5-a]pyrimidin-3-yl)urea]	≥ 10000
CNc1cc(Nc2cccc3cccnc23)nc2c(NC(=O)N[C@@H]3C[C@@H]3F)cnn12 [Compound 39, 1-((1R,2S)-2-fluorocyclopropyl)-3-(7-(methylamino)-5-(quinolin-8-ylamino)pyrazolo[1,5-a]pyrimidin-3-yl)urea]	< 1000
CNC(=O)Nc1cnn2c(NC)cc(Nc3cccc4c3OCCCO4)nc12 [Compound 169, 1-(5-((3,4-dihydro-2H-benzo[b][1,4]dioxepin-6-yl)amino)-7-(methylamino)pyrazolo[1,5-a]pyrimidin-3-yl)-3-methylurea]	< 1000
CNc1cc(Nc2cccc3c2OCCO3)nc2c(NC(=O)NCCCO)cnn12 [Compound 100, 1-(5-((2,3-dihydrobenzo[b][1,4]dixoin-5-y)amino)-7-(methylamino)pyrazolo[1,5-a]pyrimidin-3-yl)-3-(3-hydroxypropyl)urea]	1000 to 10000
CNc1cc(Nc2cccc3c2OCCO3)nc2c(NC(=O)NCC#N)cnn12 [Compound 102, 1-(cyanomethyl)-3-(5-((2,3-dihydrobenzo[b][1,4]dioxin-5-yl)amino)-7-(methylamino)pyrazolo[1,5-a]pyrimidin-3-yl)urea]	< 1000
CNC(=O)Nc1cnn2c(NC)cc(Nc3cc(C)ccc3OC)nc12 [Compound 68, 1-(5-((2-methoxy-5-methylphenyl)amino)-7-(methylamino)pyrazolo[1,5-a]pyrimidin-3-yl)-3-methylurea]	< 1000
C#Cc1cc(Nc2cc(NC)n3ncc(NC(=O)NC)c3n2)c2c(c1)OCCO2 [Compound 109, 1-(5-((7-ethynyl-2,3-dihydrobenzo[b][1,4]dioxin-5-yl)amino)-7-(methylamino)pyrazolo[1,5-a]pyrimidin-3-yl)-3-methylurea]	< 1000
CNc1cc(Nc2cc(F)cc3c2OC[C@H](CO)O3)nc2c(NC(=O)N[C@@H]3C[C@@H]3F)cnn12 [Compound 185, 1-(5-(((S)-7-fluoro-2-(hydroxymethyl)-2,3-dihydrobenzo[b][1,4]dioxin-5-yl)amino)-7-(methylamino)pyrazolo[1,5-a]pyrimidin-3-yl)-3-((1R,2S)-2-fluorocyclopropyl)urea]	1000 to 10000
CNc1cc(Nc2cc(OC)cc3c2OCCO3)nc2c(NC(=O)NC3CC3)cnn12 [Compound 84, 1-cyclopropyl-3-(5-((7-methoxy-2,3-dihydrobenzo[b][1,4]dioxin-5-yl)amino)-7-(methylamino)pyrazolo[1,5-a]pyrimidin-3-yl)urea]	1000 to 10000
CNC(=O)Nc1cnn2c(NC)cc(Nc3cccc(OC)c3)nc12 [Compound 150, 1-(5-((3-methoxyphenyl)amino)-7-(methylamino)pyrazolo[1,5-a]pyrimidin-3-yl)-3-methylurea]	< 1000
CNC(=O)Nc1cnn2c(NC)cc(Nc3cccc4c3OCC(=O)N4)nc12 [Compound 98, 1-methyl-3-(7-(methylamino)-5-((3-oxo-3,4-dihydro-2H-benzo[b][1,4]oxazin-8-yl)amino)pyrazolo[1,5-a]pyrimidin-3-yl)urea]	1000 to 10000
CNc1cc(Nc2cccc3c2OCCO3)nc2c(NC(=O)N[C@@H](C)C#N)cnn12 [Compound 121, (S)-1-(1-cyanoethyl)-3-(5-((2,3-dihydrobenzo[b][1,4]dioxin-5-yl)amino)-7-(methylamino)pyrazolo[1,5-a]pyrimidin-3-yl)urea]	< 1000
CNc1cc(Nc2cccc3c2OCCO3)nc2c(NC(=O)NC3CCCC3)cnn12 [Compound 108, 1-cyclopentyl-3-(5-((2,3-dihydrobenzo[b][1,4]dioxin-5-yl)amino)-7-(methylamino)pyrazolo[1,5-a]pyrimidin-3-yl)urea]	< 1000
CNc1cc(Nc2c(F)c(F)cc3c2OCCO3)nc2c(NC(=O)N[C@@H]3C[C@@H]3F)cnn12 [Compound 61, 1-(5-((6,7-difluoro-2,3-dihydrobenzo[b][1,4]dioxin-5-yl)amino)-7-(methylamino)pyrazolo[1,5-a]pyrimidin-3-yl)-3-((1R,2S)-2-fluorocyclopropyl)urea]	≥ 10000
CNc1cc(Nc2cc(C#N)cc3c2OCCO3)nc2c(NC(=O)N[C@@H]3C[C@@H]3F)cnn12 [Compound 33, 1-(5-((7-cyano-2,3-dihydrobenzo[b][1,4]dioxin-5-yl)amino)-7-(methylamino)pyrazolo[1,5-a]pyrimidin-3-yl)-3-((1R,2S)-2-fluorocyclopropyl)urea]	< 1000
CNc1cc(-c2cn(C(C)C)c3ncccc23)nc2c(NC(=O)NC3CC3O)cnn12 (centres unmarked) [Compound 58, 1-(2-hydroxycyclopropyl)-3-(5-(1-isopropyl-1H-pyrrolo[2,3-b]pyridin-3-yl)-7-(methylamino)pyrazolo[1,5-a]pyrimidin-3-yl)urea]	≥ 10000

Compound	IC50 [nM]
CNC(=O)Nc1cnn2c(NC)cc(Nc3ccc(F)c4c3OCCO4)nc12 [Compound 142, 1-(5-((8-fluoro-2,3-dihydrobenzo[b][1,4]dioxin-5-yl)amino)-7-(methylamino)pyrazolo[1,5-a]pyrimidin-3-yl)-3-methylurea]	< 1000
CNC(=O)Nc1cnn2c(NC)cc(-c3cn(C(C)C)c4ncccc34)nc12 [Compound 72, 1-(5-(1-isopropyl-1H-pyrrolo[2,3-b]pyridin-3-yl)-7-(methylamino)pyrazolo[1,5-a]pyrimidin-3-yl)-3-methylurea]	< 1000
CNC(=O)Nc1cnn2c(NC)cc(Nc3cccc(OC)c3OC)nc12 [Compound 97, 1-(5-((2,3-dimethoxyphenyl)amino)-7-(methylamino)pyrazolo[1,5-a]pyrimidin-3-yl)-3-methylurea]	1000 to 10000
CNc1cc(Nc2cccc3c2OCCO3)nc2c(NC(=O)NC3CC(F)C3)cnn12 (centres unmarked) [Compound 35, 1-(5-((2,3-dihydrobenzo[b][1,4]dioxin-5-yl)amino)-7-(methylamino)pyrazolo[1,5-a]pyrimidin-3-yl)-3-(3-fluorocyclobutyl)urea]	< 1000
CNc1cc(Nc2cccc3c2OCCO3)nc2c(NC(=O)NCC3(C#N)CC3)cnn12 [Compound 138, 1-((1-cyanocyclopropyl)methyl)-3-(5-((2,3-dihydrobenzo[b][1,4]dioxin-5-yl)amino)-7-(methylamino)pyrazolo[1,5-a]pyrimidin-3-yl)urea]	< 1000
CNc1cc(-c2cn(C(C)C)c3ncccc23)nc2c(NC(=O)N[C@H]3CC[C@H]3O)cnn12 [Compound 57, 1-((1S,2R)-2-hydroxycyclobutyl)-3-(5-(1-isopropyl-1H-pyrrolo[2,3-b]pyridin-3-yl)-7-(methylamino)pyrazolo[1,5-a]pyrimidin-3-yl)urea]	1000 to 10000
CNc1cc(Nc2cccc3c2OCCO3)nc2c(NC(=O)NC(C)C)cnn12 [Compound 148, 1-(5-((2,3-dihydrobenzo[b][1,4]dioxin-5-yl)amino)-7-(methylamino)pyrazolo[1,5-a]pyrimidin-3-yl)-3-isopropylurea]	< 1000
CNc1cc(Nc2cccc3cccnc23)nc2c(NC(=O)NCC#N)cnn12 [Compound 127, 1-(cyanomethyl)-3-(7-(methylamino)-5-(quinolin-8-ylamino)pyrazolo[1,5-a]pyrimidin-3-yl)urea]	< 1000
CNC(=O)Nc1cnn2c(NC)cc(Nc3cc(C#N)cc4c3OCCO4)nc12 [Compound 83, 1-(5-((7-cyano-2,3-dihydrobenzo[b][1,4]dioxin-5-yl)amino)-7-(methylamino)pyrazolo[1,5-a]pyrimidin-3-yl)-3-methylurea]	< 1000
CNc1cc2nc3c(cnn13)NC(=O)NCCOc1cccc(c1)N2 [Compound 22, (1^3E,1^4E)-1^7-(methylamino)-4-oxa-2,7,9-triaza-1(5,3)-pyrazolo[1,5-a]pyrimidina-3(1,3)-benzenacyclononaphan-8-one]	1000 to 10000
CNC(=O)Nc1cnn2c(NC)cc(Nc3cc(C4CC4)cc4c3OCCO4)nc12 [Compound 96, 1-(5-((7-cyclopropyl-2,3-dihydrobenzo[b][1,4]dioxin-5-yl)amino)-7-(methylamino)pyrazolo[1,5-a]pyrimidin-3-yl)-3-methylurea]	< 1000
CNc1cc(Nc2cc(F)cc3c2OCCO3)nc2c(NC(=O)NC3CS(=O)(=O)C3)cnn12 [Compound 126, 1-(1,1-dioxidothietan-3-yl)-3-(5-((7-fluoro-2,3-dihydrobenzo[b][1,4]dioxin-5-yl)amino)-7-(methylamino)pyrazolo[1,5-a]pyrimidin-3-yl)urea]	1000 to 10000
CNc1cc(Nc2cc(F)cc3c2OCCO3)nc2c(NC(=O)NCCOC)cnn12 [Compound 113, 1-(5-((7-fluoro-2,3-dihydrobenzo[b][1,4]dioxin-5-yl)amino)-7-(methylamino)pyrazolo[1,5-a]pyrimidin-3-yl)-3-(2-methoxyethyl)urea]	< 1000
CNc1cc(Nc2cccc3c2OCCC3=O)nc2c(NC(=O)N[C@@H]3C[C@@H]3F)cnn12 [Compound 183, 1-((1R,2S)-2-fluorocyclopropyl)-3-(7-(methylamino)-5-((4-oxochroman-8-yl)amino)pyrazolo[1,5-a]pyrimidin-3-yl)urea]	< 1000
CNC(=O)Nc1cnn2c(NC)cc(NC(=O)c3ccccc3)nc12 [Compound 167, N-(7-(methylamino)-3-(3-methylureido)pyrazolo[1,5-a]pyrimidin-5-yl)benzamide]	1000 to 10000

same assay, conditions: lysed human whole blood; 100 ng/mL IFNa (with 10 ng/mL GM-CSF), 20 minutes; pSTAT by flow cytometry

Compound	IC50 [nM]
CNc1cc(Nc2c(F)ccc3c2OCCO3)nc2c(NC(=O)NCC#N)cnn12 [Compound 136, 1-(cyanomethyl)-3-(5-((6-fluoro-2,3-dihydrobenzo[b][1,4]dioxin-5-yl)amino)-7-(methylamino)pyrazolo[1,5-a]pyrimidin-3-yl)urea]	1000 to 10000
